“Also recorded” adds a separate entry of the source. Where no end group is shown, it is not given here. [ ]: non-standard residue; d: D form. Nle = CCCC[C@H](N)C(=O)O
How the values were obtained:
Format in all cases: in vivo
[1] = tested on: Guinea Pig Model of CRBI (200 cGy TBI combined with 18 mm burn injuries); assay: NorLeu^3-A(1-7) dose-response study, survival in guinea pig model of CRBI; conditions: 1 μg/wound/day and above, applied to site of thermal injury daily through day 14; 200 cGy TBI + 18 mm burns
Protocol: (§1) In a subsequent study, 200 cGy TBI was combined with 18 mm burn injuries in a NorLeu^3-A(1-7) dose-response study. On the day of thermal injury and daily through day 14, various concentrations of NorLeu^3-A(1-7) (0-300 μg/day) were applied to the site of thermal injury (FIG. 3).
(§2) For these studies, male Hartley guinea pigs weighing approximately 500 grams were purchased from Charles Rivers Laboratory (Charles Rivers, Mass.). The guinea pigs were housed in a 12:12 hour, light:dark, cycle in the USC Vivaria. The animals received 200 cGy TBI using a Cesuim 137 irradiator. One to two hours thereafter, the guinea pigs received a thermal injury. The thermal injuries were produced and post-operative care performed as described in Rodgers et al., 1997a,b, 2001. Briefly, after anesthesia, two burns were produced on each guinea pig with an 18 mm diameter solid brass rod, which was warmed in a 75° C. water bath. One end of the brass rod was placed on the back of the guinea pig for 50 seconds.
Each burn was treated with 2% HEC (vehicle for topical drug application) with and without NorLeu^3-A(1-7) in 0.05 mol/L phosphate buffer, pH 6.5, and was individually dressed. Treatment was started at various times after TBI and thermal injury as indicated below.

[2] = tested on: Guinea Pig Model of CRBI (200 cGy TBI combined with 18 mm burn injuries); assay: Proliferating cells at the edge of the burn (immunohistochemical staining, MIB-1) in guinea pig CRBI model; conditions: topical, day 14, 200 cGy TBI + 18 mm burns
Protocol: as §1
For these studies, male Hartley guinea pigs weighing approximately 500 grams were purchased from Charles Rivers Laboratory (Charles Rivers, Mass.). The guinea pigs were housed in a 12:12 hour, light:dark, cycle in the USC Vivaria. The animals received 200 cGy TBI using a Cesuim 137 irradiator. One to two hours thereafter, the guinea pigs received a thermal injury. […]
On day 14 after thermal injury, the guinea pigs was euthanized, the burned areas will be excised en bloc. […] Healing was measured by the number of proliferating cells at the injury site. […]
With an Olympus Vanox-S AH-2 dissecting microscope and a magnification power of 100×, each section of the biopsy specimen was separated into either areas on the burn edge or the actual burn areas. […] In each section four to six consecutive medium-power fields (mpf, 100×) were evaluated. […] All stained cells located within the hair follicles of the biopsy sections were counted. […] Each field was then determined to be either a section on the edge of the burn or a part of the burn area itself. […]

[3] = tested on: Guinea Pig Model of CRBI (200 cGy TBI and thermal injury 2 hours later); assay: Time point at which treatment can be initiated, survival in guinea pig CRBI model; conditions: 10 or 100 μg/daily
Protocol: A second study was conducted in this model to assess the length of time that treatment can be delayed and still reduce mortality. In this study, the guinea pigs underwent 200 cGy TBI and thermal injury 2 hours later. Treatment with placebo was started on day 0. Treatment with 10 or 100 μg/daily NorLeu^3-A(1-7) was initiated on day 0, 1, 2, 3 or 4. When treatment was started at days 0, 1, 2, or 3 survival was increased to approximately 40-60% versus 14% in the placebo-treated animals (FIG. 6-9).
as §2
Each burn was treated with 2% HEC (vehicle for topical drug application) with and without NorLeu^3-A(1-7) in 0.05 mol/L phosphate buffer, pH 6.5, and was individually dressed. […]

[4] = tested on: mouse model of CRBI (10 sec scald at 70 C following 600 cGy TBI); assay: Apoptosis in dermal tissue by TUNEL assay in mouse thermal injury / CRBI model; conditions: daily 100 ul per wound at 1 mg/ml, day 7
Protocol: Mice received thermal injury only received a 7% total body surface area scald at 70 C for 10 seconds (under ketamine/xylazine anesthesia). Mice that received the combined injury received total body irradiation with a cesium irradiator at a dose of 6 Gy and 2 hours later received the same scald injury. For the data presented, the treatments were started immediately after the scald injury and the wound were bandaged with Tegaderm. Treatment was daily with 100 ul give per wound at a concentration of 1 mg/ml. The animals were euthanized on day 7. Apoptosis in the dermal tissue was measured by TUNEL assay. NorLeu3-A(1-7) provides additional systems to mitigate delayed wound healing with the involvement of radiation.

Asp-Arg-Nle-Tyr-Ile-His-Pro (DR[Nle]YIHP) [NorLeu^3-A(1-7)]
mortality associated with combined injury [1]: reduced mortality | number of proliferating cells in the hair follicle bulge at the edge of the wound ([2]; all doses (except 3 μg/wound/day)): increases proliferating cells; also recorded: increased the number of proliferating cells | number of (proliferating) cells in the basal keratinocyte layer at the edge of the burn ([2]; doses of 10 μg/daily and above): increases proliferating cells; also recorded: increase in the number of cells | effectiveness (survival) with delayed treatment ([3]; initiation of treatment delayed until day 4): effectiveness was reduced | survival ([3]; treatment started at days 0, 1, 2, or 3 after CRBI, versus 14% in placebo-treated animals): 40-60% | apoptosis in the dermis and subdermis of thermal injuries ([4]; mouse CRBI: 10 sec scald at 70 C following 600 cGy TBI): reduces apoptosis | apoptosis at the site of thermal injury alone ([4]; mouse thermal injury only (no TBI): 7% TBSA scald at 70 C for 10 seconds): not at the site of thermal injury alone

Reference: patent publication US9272013B2, “Methods for treating combined radiation and thermal injury” (University of Southern California, priority 2010, dated 2016)
